Molecules are shown by their SMILES. Structures can show the parent of a compound that is named as a salt.

Usually melting point stands for the temperature, or range, at which the solid turns liquid. Take `Cc1nc2cccc(CN)c2c(=O)n1C1CCC(=O)NC1=O.Cl` (stereo not drawn): the melting point was 256 °C (dec.).
The figure for `Cc1nc2cccc(NC(=O)CN(C)C)c2c(=O)n1C1CCC(=O)NC1=O` (stereo not drawn) (as salt: chloride) [Example 6.25, 2-Dimethylamino-N-[3-(2,6-Dioxo-Piperidin-3-yl)-2-Methyl-4-Oxo-3,4-Dihydro-Quinazolin-5-yl]-Acetamide Hydrogen Chloride] is 256 to 258 °C.
Regarding `Cc1cccc2ncn(C3CCC(=O)NC3=O)c(=O)c12` (stereo not drawn) [Example 6.1, 3-(5-Methyl-4-Oxo-4H-Quinazolin-3-yl)-Piperidine-2,6-Dione], the melting point lay in the range of 262 to 264 °C.
As for `Cc1cccc2nc(C)n(C3CCC(=O)NC3=O)c(=O)c12` (stereo not drawn) [Example 6.2, 3-(2,5-Dimethyl-4-Oxo-4H-Quinazolin-3-yl)-Piperidine-2,6-Dione], the figure is 292 to 294 °C.
Molecule `Cc1cccc2nc(O)n(C3CCC(=O)NC3=O)c(=O)c12` (stereo not drawn) [Example 6.5, 3-(2-Hydroxy-5-Methyl-4-Oxo-4H-Quinazolin-3-yl)-Piperidine-2,6-Dione] registered a melting point of 373 to 375 °C.
As for `Cc1cccc2nc(C)n([C@@]3(C)CCC(=O)NC3=O)c(=O)c12` [Example 6.7, 3R-3-(2,5-Dimethyl-4-Oxo-4H-Quinazolin-3-yl)-3-Methyl-Piperidine-2,6-Dione], the figure is 298 to 301 °C; as for `COc1cccc2nc(C)n(C3CCC(=O)NC3=O)c(=O)c12` (stereo not drawn) [Example 6.8, 3-(5-Methoxy-2-Methyl-4-Oxo-4H-Quinazolin-3-yl)-Piperidine-2,6-Dione], 274 to 276 °C.
For `Cc1nc2cccc(Cl)c2c(=O)n1C1CCC(=O)NC1=O` (stereo not drawn) [Example 6.10, 3-(5-Chloro-2-Methyl-4-Oxo-4H-Quinazolin-3-yl)-Piperidine-2,6-Dione], the melting point is 315 °C (dec.).
As for `Cc1nc2cccc(C(F)(F)F)c2c(=O)n1C1CCC(=O)NC1=O` (stereo not drawn) [Example 6.11, 3-(2-Methyl-4-Oxo-5-Trifluoromethyl-4H-Quinazolin-3-yl)-Piperidine-2,6-Dione], the figure is 268 to 270 °C; as for `O=C1CCC(n2cnc3cccc(Cl)c3c2=O)C(=O)N1` (stereo not drawn) [Example 6.12, 3-(5-Chloro-4-Oxo-4H-Quinazolin-3-yl)-Piperidine-2,6-Dione], 308 to 310 °C; as for `CCc1nc2cccc(C)c2c(=O)n1C1CCC(=O)NC1=O` (stereo not drawn) [Example 6.13, 3-(2-Ethyl-5-Methyl-4-Oxo-4H-Quinazolin-3-yl)-Piperidine-2,6-Dione], 228 to 230 °C.
Regarding `CCCCc1nc2cccc(C)c2c(=O)n1C1CCC(=O)NC1=O` (stereo not drawn) [Example 6.14, 3-(2-Butyl-5-Methyl-4-Oxo-4H-Quinazolin-3-yl)-Piperidine-2,6-Dione], the melting point was 190 to 192 °C.
As for `Cc1cccc2nc(C(F)(F)F)n(C3CCC(=O)NC3=O)c(=O)c12` (stereo not drawn) [Example 6.15, 3-(5-Methyl-4-Oxo-2-Trifluoromethyl-4H-Quinazolin-3-yl)-Piperidine-2,6-Dione], the figure is 308 to 310 °C; as for `Cc1cccc2nc(-c3ccccc3)n(C3CCC(=O)NC3=O)c(=O)c12` (stereo not drawn) [Example 6.16, 3-(5-Methyl-4-Oxo-2-Phenyl-4H-Quinazolin-3-yl)-Piperidine-2,6-Dione], 298 to 300 °C.
As for `Cc1nc2cccc(N)c2c(=O)n1[C@]1(C)CCC(=O)NC1=O` [Example 6.19, (R)-3-(5-Amino-2-Methyl-4-Oxoquinazolin-3(4H)-yl)-3-Methylpiperidine-2,6-Dione], the figure is 295 to 297 °C; as for `COCC(=O)Nc1cccc2nc(C)n(C3CCC(=O)NC3=O)c(=O)c12` (stereo not drawn) [Example 6.20, N-[3-(2,6-Dioxo-Piperidin-3-yl)-2-Methyl-4-Oxo-3,4-Dihydro-Quinazolin-5-yl]-2-Methoxy-Acetamide], 282 to 284 °C; as for `CC(=O)Nc1cccc2nc(C)n(C3CCC(=O)NC3=O)c(=O)c12` (stereo not drawn) [Example 6.21, N-[3-(2,6-Dioxo-Piperidin-3-yl)-2-Methyl-4-Oxo-3,4-Dihydro-Quinazolin-5-yl]-Acetamide], 320 to 322 °C.
As for `CCCCCCC(=O)Nc1cccc2nc(C)n(C3CCC(=O)NC3=O)c(=O)c12` (stereo not drawn) [Example 6.23, Heptanoic Acid [3-(2,6-Dioxo-Piperidin-3-yl)-2-Methyl-4-Oxo-3,4-Dihydro-Quinazolin-5-yl]-Amide], the figure is 230 to 232 °C; as for `CCOCC(=O)Nc1cccc2nc(C)n(C3CCC(=O)NC3=O)c(=O)c12` (stereo not drawn) [Example 6.24, N-[3-(2,6-Dioxo-Piperidin-3-yl)-2-Methyl-4-Oxo-3,4-Dihydro-Quinazolin-5-yl]-2-Ethoxy-Acetamide], 291 to 293 °C.
For `Cc1nc2cccc(NC(=O)CCl)c2c(=O)n1C1CCC(=O)NC1=O` (stereo not drawn) [Example 6.26, 2-Chloro-N-[3-(2,6-Dioxo-Piperidin-3-yl)-2-Methyl-4-Oxo-3,4-Dihydro-Quinazolin-5-yl]-Acetamide], the melting point was 275 to 277 °C.
The figure for `CCOC(=O)Nc1cccc2nc(C)n(C3CCC(=O)NC3=O)c(=O)c12` (stereo not drawn) [Example 6.27, [3-(2,6-Dioxo-Piperidin-3-yl)-2-Methyl-4-Oxo-3,4-Dihydro-Quinazolin-5-yl]-Carbamic Acid Ethyl Ester] is 284 to 286 °C (dec.); for `Cc1nc2cccc(CNC(=O)OC(C)(C)C)c2c(=O)n1C1CCC(=O)NC1=O` (stereo not drawn) [Example 6.28, [3-(2,6-Dioxo-Piperidin-3-yl)-2-Methyl-4-Oxo-3,4-Dihydro-Quinazolin-5-ylmethyl]-Carbamic Acid Tert-Butyl Ester] it is 206 to 208 °C.
As for `CCCC(=O)NCc1cccc2nc(C)n(C3CCC(=O)NC3=O)c(=O)c12` (stereo not drawn) [Example 6.31, N-[3-(2,6-Dioxo-Piperidin-3-yl)-2-Methyl-4-Oxo-3,4-Dihydro-Quinazolin-5-ylmethyl]-Butyramide], the figure is 250 to 252 °C; as for `CCCCCCC(=O)NCc1cccc2nc(C)n(C3CCC(=O)NC3=O)c(=O)c12` (stereo not drawn) [Example 6.32, Heptanoic Acid [3-(2,6-Dioxo-Piperidin-3-yl)-2-Methyl-4-Oxo-3,4-Dihydro-Quinazolin-5-ylmethyl]-Amide], 208 to 210 °C.
For the molecule `Cc1nc2cccc(CNC(=O)CC(C)(C)C)c2c(=O)n1C1CCC(=O)NC1=O` (stereo not drawn) [Example 6.33, N-[3-(2,6-Dioxo-Piperidin-3-yl)-2-Methyl-4-Oxo-3,4-Dihydro-Quinazolin-5-ylmethyl]-3,3-Dimethyl-Butyramide], the melting point lay within 212 to 214 °C.
Consider `Cc1nc2cccc(CNC(=O)CN(C)C)c2c(=O)n1C1CCC(=O)NC1=O` (stereo not drawn) [Example 6.35, 2-Dimethylamino-N-[3-(2,6-Dioxo-Piperidin-3-yl)-2-Methyl-4-Oxo-3,4-Dihydro-Quinazolin-5-ylmethyl]-Acetamide], for which the melting point was 275 °C (dec.).
As for `Cc1nc2cccc(NC(=O)c3cccc(Cl)c3)c2c(=O)n1C1CCC(=O)NC1=O` (stereo not drawn) [Example 6.36, 3-Chloro-N-[3-(2,6-Dioxo-Piperidin-3-yl)-2-Methyl-4-Oxo-3,4-Dihydro-Quinazolin-5-yl]-Benzamide], the figure is 326 to 328 °C; as for `Cc1nc2cccc(CNC(=O)Cc3ccccc3)c2c(=O)n1C1CCC(=O)NC1=O` (stereo not drawn) [Example 6.38, N-[3-(2,6-Dioxo-Piperidin-3-yl)-2-Methyl-4-Oxo-3,4-Dihydro-Quinazolin-5-ylmethyl]-2-Phenyl-Acetamide], 275 to 277 °C; as for `Cc1nc2cccc(CNC(=O)c3ccccn3)c2c(=O)n1C1CCC(=O)NC1=O` (stereo not drawn) [Example 6.39, Pyridine-2-Carboxylic Acid [3-(2,6-Dioxo-Piperidin-3-yl)-2-Methyl-4-Oxo-3,4-Dihydro-Quinazolin-5-ylmethyl]-Amide], 261 to 263 °C.
Regarding `Cc1nc2cccc(CNC(=O)Cc3ccc(Cl)cc3)c2c(=O)n1C1CCC(=O)NC1=O` (stereo not drawn) [Example 6.40, 2-(4-Chloro-Phenyl)-N-[3-(2,6-Dioxo-Piperidin-3-yl)-2-Methyl-4-Oxo-3,4-Dihydro-Quinazolin-5-ylmethyl]-Acetamide], the melting point is 285 °C (dec.).
As to `Cc1nc2cccc(CNC(=O)Cc3ccc(Cl)c(Cl)c3)c2c(=O)n1C1CCC(=O)NC1=O` (stereo not drawn) [Example 6.42, 2-(3,4-Dichloro-Phenyl)-N-[3-(2,6-Dioxo-Piperidin-3-yl)-2-Methyl-4-Oxo-3,4-Dihydro-Quinazolin-5-ylmethyl]-Acetamide], the melting point is 262 to 264 °C.
In turn, `Cc1ccc(CC(=O)NCc2cccc3nc(C)n(C4CCC(=O)NC4=O)c(=O)c23)cc1F` (stereo not drawn) [Example 6.44, N-[3-(2,6-Dioxo-Piperidin-3-yl)-2-Methyl-4-Oxo-3,4-Dihydro-Quinazolin-5-ylmethyl]-2-(3-Fluoro-4-Methyl-Phenyl)-Acetamide] gave a melting point of 264 to 266 °C.
On to `Cc1nc2cccc(CNC(=O)Cc3ccc(C(F)(F)F)cc3)c2c(=O)n1C1CCC(=O)NC1=O` (stereo not drawn) [Example 6.45, N-[3-(2,6-Dioxo-Piperidin-3-yl)-2-Methyl-4-Oxo-3,4-Dihydro-Quinazolin-5-ylmethyl]-2-(4-Trifluoromethyl-Phenyl)-Acetamide], for which the melting point lay within 199 to 201 °C.
The figure for `Cc1nc2cccc(CNC(=O)Nc3ccc(Cl)cc3)c2c(=O)n1C1CCC(=O)NC1=O` (stereo not drawn) [Example 6.46, 1-(4-Chloro-Phenyl)-3-[3-(2,6-Dioxo-Piperidin-3-yl)-2-Methyl-4-Oxo-3,4-Dihydro-Quinazolin-5-ylmethyl]-Urea] is 255 to 257 °C.
With `Cc1ccc(NC(=O)NCc2cccc3nc(C)n(C4CCC(=O)NC4=O)c(=O)c23)cc1Cl` (stereo not drawn) [Example 6.47, 1-(3-Chloro-4-Methyl-Phenyl)-3-[3-(2,6-Dioxo-Piperidin-3-yl)-2-Methyl-4-Oxo-3,4-Dihydro-Quinazolin-5-ylmethyl]-Urea], the melting point is 250 to 252 °C.
As for `Cc1ccc(NC(=O)NCc2cccc3nc(C)n(C4CCC(=O)NC4=O)c(=O)c23)cc1C` (stereo not drawn) [Example 6.48, 1-(3,4-Dimethyl-Phenyl)-3-[3-(2,6-Dioxo-Piperidin-3-yl)-2-Methyl-4-Oxo-3,4-Dihydro-Quinazolin-5-ylmethyl]-Urea], the figure is 241 to 243 °C.

Source of the values: patent US8921385B2, “5-substituted quinazolinone derivatives and compositions comprising and methods of using the same” (Celgene Corporation, priority 2006, dated 2014).
